This assay concerns the target T1, PPH-5 (Caenorhabditis elegans, UniProt Q9NES8).
T1 construct: made in house
T1 sequence (Q9NES8 1-496): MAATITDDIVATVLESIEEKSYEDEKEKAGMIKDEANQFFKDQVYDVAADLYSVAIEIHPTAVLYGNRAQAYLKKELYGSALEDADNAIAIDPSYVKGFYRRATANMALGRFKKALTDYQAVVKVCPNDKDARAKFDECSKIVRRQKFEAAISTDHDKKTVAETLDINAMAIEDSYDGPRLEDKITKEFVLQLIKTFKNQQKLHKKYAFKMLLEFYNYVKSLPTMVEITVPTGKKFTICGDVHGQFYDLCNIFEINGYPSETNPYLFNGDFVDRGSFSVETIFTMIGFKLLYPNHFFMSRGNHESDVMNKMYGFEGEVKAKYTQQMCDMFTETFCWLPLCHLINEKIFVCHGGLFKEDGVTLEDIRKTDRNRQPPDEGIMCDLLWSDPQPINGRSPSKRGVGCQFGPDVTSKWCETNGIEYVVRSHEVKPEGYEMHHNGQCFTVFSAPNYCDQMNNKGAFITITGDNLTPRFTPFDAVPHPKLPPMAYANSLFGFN
Put plainly: pNPP-based phosphatase assay with nematode PPH-5. The format is biochemical, C. elegans. As to conditions: for Kd: apparent KD-value in the pNPP-based assay, 20 °C; for effect on the enzymatic activity of PPH-5 in the compound screen: initial screen of 15,000 compounds, pNPP, P5SAs at 50 ng/mL. The method, then:
At some instances, the present application refers to "measuring the enzymatic activity" of an enzyme. As used herein, this means that a measured value that is proportional to or reflects the enzymatic activity of that enzyme is measured. For example, the present application may refer to "measuring the enzymatic activity of protein phosphatase 5". Typically, this means that an in vitro reaction of protein phosphatase 5 with a suitable substrate is carried out.As the substrate para-nitrophenyl phosphate (pNPP) is used. The conditions for the phosphatase reaction are 40 mM HEPES/KOH, 20 mM KCl, 5 mM MnCl2, 1 mM DTT, pH 7.5. The reaction is carried out at 20° C. The starting concentration of pNPP is 60 mM. The concentration of the compound to be tested, if present, is in the range of 50-500 nM, preferably in the range of 100-250 nM, more preferably 50, 250 or 500 nM, more preferably 250 nM. As phosphatase, bacterially expressed and purified phosphatase is used. The concentration of the phosphatase in the reaction is 30 nM. The rate at which the dephosphorylation of this substrate proceeds is monitored, typically by measuring the rate of formation of the reaction product by spectroscopic measurements (dephosphorylation of pNPP, e.g., results in generation of p-nitrophenol, a chromogenic product with strong absorbance at about 410 nm (extinction coefficient ε = 15100 cm^-1M^-1), thus allowing to monitor generation of the reaction product by monitoring the absorbance at 410 nm). If the reaction is carried out in the presence of an excess of substrate, the initial velocity at which the reaction product is generated (i.e. the slope of the initial phase of the curve in a graph plotting the absorbance at 410 nm over time) is proportional to the enzymatic activity of protein phosphatase 5under the specific reaction conditions used. Alternatively, after starting the phosphatase reaction the reaction may be allowed to proceed for a defined incubation period (usually 30 minutes), then the reaction is stopped (for example by addition of a small volume of 1 M NaOH), and the absorbance at 410 nm is measured. Upon subtraction of the absorbance of a negative control (a reaction carried out with a non-functional, for example pre-boiled, phosphatase), the obtained value is proportional to the enzymatic activity of protein phosphatase 5 under the specific reaction conditions used (since the reaction is carried out in the presence of an excess of substrate and the incubation period is chosen such that the reaction is stopped while it is still in the quasi-linear Phase). Phosphatase activity was followed by the conversion of para-nitrophenyl phosphate (pNPP) to para-nitophenole and absorption of the product at 410 nm (ε: 15100 cm^-1 M^-1) in a Varian Cary 100 spectrophotometer (Agilent Technologies, Boeblingen, Germany). The reaction was measured in 40 mM HEPES/KOH, 20 mM KCl, 5 mM MnCl2, 1 mM DTT, pH 7.5 and 60 mM pNPP at 20 °C if not indicated otherwise. Phosphatase concentration ranged from 50 to 500 nM in the assay. If indicated, Hsp90/DAF-21 peptide was supplemented in the assay at a concentration of 60 μM. The protein phosphatase 5 is a highly regulated enzyme. The autoinhibition of the phosphatase is controlled by the N-terminal TPR domain and the C-terminal αJ helix, implying a complex mechanism to control the turnover rate (Yang et al., 2005). A compound screen was carried out to identify small molecules which can alter the activity of the phosphatase. The C. elegans homolog of protein phosphatase 5 was used (activity of nematode protein phosphatase 5 (PPH-5) at 20 °C: ∼0.62 sec^-1; mammalian PP5: ∼0.12 sec^-1). The homology between nematode PPH-5 and human PP5 is pronounced with a sequence conservation of almost 80% (Figure 6). Using the substrate para-nitrophenyl phosphate (pNPP), a library of 15,000 compounds was analyzed. […]

Molecules are shown by their SMILES.

Consider `FC(F)(F)c1c2c(nc3c(-c4ccc(Cl)cc4)cnn13)CCC2` [P5SA-1], for which the Kd was 13.3 ± 4.2 µM and the “effect on the enzymatic activity of PPH-5 in the compound screen” value (from here on “effect on the enzymatic activity”) is “activating effect”. The fold activation ((sat.)) is on record as 3.7 fold.

Turning to `COc1ccc(-c2nc(Cc3ccc(Cl)cc3)no2)cc1OC` [P5SA-2], the Kd is 7.8 ± 1.4 µM and the “effect on the enzymatic activity” value is “activating effect”. This compound also had a fold activation ((sat.)) of 9.6 fold.

Turning to `CN1CCc2c(sc(-n3cccc3)c2CNC(=O)NC23CC4CC(CC(C4)C2)C3)C1` [P5SA-3], the “effect on the enzymatic activity” value is reported as “activating effect”. The compound further came in with a fold activation (at 714 µM) of 4.0 fold.

For `O=c1cc2nc(-c3ccc(F)cc3)nc(SCc3ccc(Br)cc3)n2[nH]1` [P5SA-4], the Kd is 25.7 ± 5.5 µM and the “effect on the enzymatic activity” value is “activating effect”. The fold activation ((sat.)) is listed as 7.8 fold.

For `CNC(=O)c1c(NC(=O)COCC(=O)Nc2sc3c(c2C(=O)NC)CCC3)sc2c1CCC2` [P5SA-5], the Kd is 6.4 ± 1.8 µM and the “effect on the enzymatic activity” value is “activating effect”. Further, where the note is “60 µM MEEVD peptide, titration by phosphatase assay”, the “influence of MEEVD peptide on affinity to PPH-5” value is “minor influence”. The same compound gave a fold activation ((sat.)) of 8.4 fold.
